Measured values reported in US20250236613A1, “SARM1 MODULATORS, PREPARATIONS, AND USES THEREOF” (SIRONAX LTD., priority 2021, published 2025).

Biological target: SARM1 (50-724) (Homo sapiens (Human), UniProt Q6SZW1)
Assay: SARM1 (50-724) enzymatic assay
Format: biochemical
Details: SARM1 inhibitory activity; 2 nM SARM1 (50-724), 200 μM NMN activator, 100 μM NAD+ substrate, 1 h, LC-MS/MS
Protocol: The enzymatic assay was performed in a 384-well plate using Dulbecco's PBS buffer as the reaction buffer. Purified SARM1 (50-724) with a final concentration of 2 nM was pre-incubated with the test compound at 1% DMSO final assay concentration for 15 min at room temperature. The reaction was initiated by adding the mixture of 200 μM NMN as activator and 100 μM NAD^+ as substrate. After 1 h of incubation at room temperature, the reaction was terminated with 10 times volume of 70% acetonitrile, then centrifuged at 3800 rpm for 10 min. The samples were analyzed using LC-MS/MS after diluted to the proper concentration by 10 mM ammonium acetate (pH 9.75).

SARM1 (50-724), sequence (Q6SZW1 50-724): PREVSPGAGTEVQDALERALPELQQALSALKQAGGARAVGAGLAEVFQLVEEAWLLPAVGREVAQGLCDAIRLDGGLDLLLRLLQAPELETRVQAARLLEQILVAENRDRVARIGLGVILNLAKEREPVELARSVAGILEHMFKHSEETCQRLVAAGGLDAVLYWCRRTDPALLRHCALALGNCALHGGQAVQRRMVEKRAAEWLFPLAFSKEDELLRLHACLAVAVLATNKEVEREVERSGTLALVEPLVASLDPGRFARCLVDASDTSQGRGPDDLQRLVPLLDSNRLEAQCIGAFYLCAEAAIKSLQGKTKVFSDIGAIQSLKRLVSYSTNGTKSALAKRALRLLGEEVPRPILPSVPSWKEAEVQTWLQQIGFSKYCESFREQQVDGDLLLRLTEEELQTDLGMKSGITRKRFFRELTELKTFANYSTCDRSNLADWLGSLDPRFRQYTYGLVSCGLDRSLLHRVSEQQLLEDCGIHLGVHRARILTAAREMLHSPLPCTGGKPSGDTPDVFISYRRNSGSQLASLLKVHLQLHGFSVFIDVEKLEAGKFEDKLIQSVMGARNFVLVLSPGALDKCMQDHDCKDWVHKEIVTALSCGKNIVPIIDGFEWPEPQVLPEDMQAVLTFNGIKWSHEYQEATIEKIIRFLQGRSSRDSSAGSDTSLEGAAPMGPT

IC50 [µM]	Compound
< 5	O=c1[nH]c2ccc(-c3cncc(Nc4cccnc4)c3)cc2o1 [Compound 105, 6-(5-(pyridin-3-ylamino)pyridin-3-yl)benzo[d]oxazol-2(3H)-one]
< 5	CC(C)(C)OC(=O)N1CCCc2ccc(Nc3cncc(-c4ccc5[nH]c(=O)oc5c4)c3)cc21 [Compound 106, tert-butyl 7-((5-(2-oxo-2,3-dihydrobenzo[d]oxazol-6-yl)pyridin-3-yl)amino)-3,4-dihydroquinoline-1(2H)-carboxylate]
< 5	N#Cc1cccc(Nc2cncc(-c3ccc4[nH]c(=O)oc4c3)c2)c1 [Compound 107, 3-((5-(2-oxo-2,3-dihydrobenzo[d]oxazol-6-yl)pyridin-3-yl)amino)benzonitrile]
< 5	Cn1cc(Nc2cncc(-c3ccc4[nH]c(=O)oc4c3)c2)cn1 [Compound 108, 6-(5-((1-methyl-1H-pyrazol-4-yl)amino)pyridin-3-yl)benzo[d]oxazol-2(3H)-one]
< 5	CN(c1ccccc1)c1cncc(-c2ccc3[nH]c(=O)oc3c2)c1 [Compound 109, 6-(5-(methyl(phenyl)amino)pyridin-3-yl)benzo[d]oxazol-2(3H)-one]
< 5	CNc1cncc(-c2ccc3[nH]c(=O)oc3c2)c1 [Compound 110, 6-(5-(methylamino)pyridin-3-yl)benzo[d]oxazol-2(3H)-one]
< 5	O=c1[nH]c2ccc(-c3cncc(Nc4ccncc4)c3)cc2o1 [Compound 111, 6-(5-(pyridin-4-ylamino)pyridin-3-yl)benzo[d]oxazol-2(3H)-one]
< 5	O=c1[nH]c2ccc(-c3cc(Nc4ccccc4)cnn3)cc2o1 [Compound 112, 6-(5-(phenylamino)pyridazin-3-yl)benzo[d]oxazol-2(3H)-one]
< 5	O=c1[nH]c2ccc(-c3cncc(Nc4ccccn4)c3)cc2o1 [Compound 113, 6-(5-(pyridin-2-ylamino)pyridin-3-yl)benzo[d]oxazol-2(3H)-one]
< 5	O=c1[nH]c2ccc(-c3cncc(Nc4cncnc4)c3)cc2o1 [Compound 114, 6-(5-(pyrimidin-5-ylamino)pyridin-3-yl)benzo[d]oxazol-2(3H)-one]
< 5	O=c1[nH]c2ccc(-c3cncc(Nc4nccs4)c3)cc2o1 [Compound 115, 6-(5-(thiazol-2-ylamino)pyridin-3-yl)benzo[d]oxazol-2(3H)-one]
< 5	Cc1cc(Nc2cncc(-c3ccc4[nH]c(=O)oc4c3)c2)n(C)n1 [Compound 117, 6-(5-((1,3-dimethyl-1H-pyrazol-5-yl)amino)pyridin-3-yl)benzo[d]oxazol-2(3H)-one]
< 5	O=c1[nH]c2ccc(-c3cncc(Nc4cccnn4)c3)cc2o1 [Compound 118, 6-(5-(pyridazin-3-ylamino)pyridin-3-yl)benzo[d]oxazol-2(3H)-one]
< 5	O=c1[nH]c2ccc(-c3cncc(Oc4ccccc4)c3)cc2o1 [Compound 119, 6-(5-phenoxypyridin-3-yl)benzo[d]oxazol-2(3H)-one]
< 5	Cc1ccncc1-c1ccc2[nH]c(=O)[nH]c(=O)c2c1 [Compound 120, 6-(4-methylpyridin-3-yl)quinazoline-2,4(1H,3H)-dione]
